Measured values: patent US20220306617A1, “SUBSTITUTED 1,3-PHENYL HETEROARYL DERIVATIVES AND THEIR USE IN THE TREATMENT OF DISEASE” (NOVARTIS AG, priority 2019, published 2022)
Structures can show the parent of a compound that is named as a salt.

Molecular target: T1, abc isoform of human TMEM16A channel expressed in CHO cells (Homo sapiens, UniProt Q5XXA6, DEL476-501)
T1 construct: expressed in transfected cells; host or cells: CHO cells, doxycycline-inducible expression under Blasticidin/Zeocin selection
T1 sequence (Q5XXA6 with tags, fused parts or gaps isoform Q5XXA6-5 DEL539-564): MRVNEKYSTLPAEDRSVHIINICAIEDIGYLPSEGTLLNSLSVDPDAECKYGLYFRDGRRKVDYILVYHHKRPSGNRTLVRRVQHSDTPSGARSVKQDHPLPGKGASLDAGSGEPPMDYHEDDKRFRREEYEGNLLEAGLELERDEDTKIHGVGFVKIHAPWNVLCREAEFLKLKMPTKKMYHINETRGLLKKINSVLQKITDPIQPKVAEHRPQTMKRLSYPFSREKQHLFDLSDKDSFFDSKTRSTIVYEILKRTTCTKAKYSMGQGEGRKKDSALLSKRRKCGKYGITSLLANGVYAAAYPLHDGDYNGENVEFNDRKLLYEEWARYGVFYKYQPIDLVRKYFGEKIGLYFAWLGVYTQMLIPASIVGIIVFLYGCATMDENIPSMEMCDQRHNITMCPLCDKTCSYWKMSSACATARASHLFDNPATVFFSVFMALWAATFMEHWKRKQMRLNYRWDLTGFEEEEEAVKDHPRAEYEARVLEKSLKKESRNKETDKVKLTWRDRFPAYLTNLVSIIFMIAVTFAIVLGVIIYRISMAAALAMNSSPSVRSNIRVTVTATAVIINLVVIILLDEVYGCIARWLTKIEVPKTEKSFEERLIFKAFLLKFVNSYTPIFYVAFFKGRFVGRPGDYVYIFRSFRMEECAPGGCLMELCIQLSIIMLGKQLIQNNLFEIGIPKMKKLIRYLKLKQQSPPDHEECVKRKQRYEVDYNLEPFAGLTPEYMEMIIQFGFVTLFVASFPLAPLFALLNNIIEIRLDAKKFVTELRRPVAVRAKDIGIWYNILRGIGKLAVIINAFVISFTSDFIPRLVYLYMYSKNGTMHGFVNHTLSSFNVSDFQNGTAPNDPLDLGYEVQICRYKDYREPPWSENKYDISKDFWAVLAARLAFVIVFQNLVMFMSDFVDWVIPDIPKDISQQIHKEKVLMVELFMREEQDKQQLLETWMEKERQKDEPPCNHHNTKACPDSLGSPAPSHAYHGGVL
Assay: Automated patch clamping (QPatch) assay to measure TMEM16A activity in whole-cell
Type: cell-based
Settings: for EC50: CHO cells expressing human TMEM16A (abc), whole-cell automated patch clamp, Hill fit, read-out: TMEM16A QPATCH assay EC50 V3 EC50; for Emax: CHO, maximum current at highest dose relative to reference potentiator at maximal concentration (upper limit) and vehicle (lower limit), read-out: TMEM16A QPATCH assay EC50 V3 Assay Window (% TMEM16A max activation)
In short: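 Whole-cell currents were recorded by planar automated patch clamp from induced CHO cells (doxycycline 1 μg/mL, 18-24 h), using a −70 mV hold, +70 mV step and −90 to +70 mV ramp. Values: Hill-fitted EC50, and activation scaled between vehicle current and reference-potentiator maximum; 0.3% DMSO final.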

Compound	EC50 [nM]	Emax [%]
COC(=O)[C@@H](NC(=O)c1cnc(-c2cccc(-c3cc(C(=O)NC(C4CC4)C4CC4)n(CC(O)C(F)(F)F)n3)c2)o1)C(C)C (stereo partly drawn) [Example 6.1, (2S)-Methyl 2-(2-(3-(5-((Dicyclopropylmethyl)Carbamoyl)-1-(3,3,3-Trifluoro-2-Hydroxypropyl)-1H-Pyrazol-3-Yl)Phenyl)Oxazole-5-Carboxamido)-3-Methylbutanoate]	120	220
CCC(CC)NC(=O)c1cnc(-c2cccc(-c3cc(C(=O)NCc4ccc(F)cc4)n[nH]3)c2)o1 [Example 3.45, 2-(3-(3-((4-Fluorobenzyl)Carbamoyl)-1 H-Pyrazol-5-Yl)Phenyl)-N-(Pentan-3-yl)Oxazole-5-Carboxamide]	550	81
CCC(CC)NC(=O)c1cnc(-c2cccc(-c3cc(C(=O)NC(C)C4CCC4)n[nH]3)c2)o1 (stereo not shown) [Example 3.10, 2-(3-(3-((1-Cyclobutylethyl)Carbamoyl)-1H-Pyrazol-5-Yl)Phenyl)-N-(Pentan-3-Yl)Oxazole-5-Carboxamide]	90	95
CCC(CC)NC(=O)c1cc(-c2cccc(-c3ncc(C(=O)NC(C)(C)C)o3)c2)[nH]n1 [Example 1.13, N-(Tert-Butyl)-2-(3-(3-(Pentan-3-Ylcarbamoyl)-1H-Pyrazol-5-yl)Phenyl)Oxazole-5-Carboxamide]	400	112
CCOC(=O)[C@@H](NC(=O)c1cc(-c2cccc(-c3ncc(C(=O)NC(C4CC4)C4CC4)o3)c2)nn1CC(C)(C)O)C(C)C [Example 10.0, (S)-Ethyl 2-(3-(3-(5-((Dicyclopropylmethyl)Carbamoyl)Oxazol-2-Yl)Phenyl)-1-(2-Hydroxy-2-Methylpropyl)-1 H-Pyrazole-5-Carboxamido)-3-Methylbutanoate]	40	116
C[C@H](NC(=O)c1cnc(-c2cccc(-c3nnc(C(=O)N[C@H](C)C4CC4)[nH]3)c2)o1)C1CC1 [Example 13.0, N-((S)-1-Cyclopropylethyl)-2-(3-(5-(((R)-1-Cyclopropylethyl)Carbamoyl)-4H-1,2,4-Triazol-3-Yl)Phenyl)Oxazole-5-Carboxamide]	310	74
CCC(CC)NC(=O)c1cc(-c2cccc(-c3ncc(C(=O)NC(CC)C(C)C)o3)c2)[nH]n1 (stereo not shown) [Example 1.11, N-(2-Methylpentan-3-Yl)-2-(3-(3-(Pentan-3-Ylcarbamoyl)-1H-Pyrazol-5-yl)Phenyl)Oxazole-5-Carboxamide]	270	165
CCC(CC)NC(=O)c1cnc(-c2cccc(-c3cc(C(=O)N4CCC(C(=O)OC(C)(C)C)C4)n[nH]3)c2)o1 (stereo not shown) [Example 3.62, Tert-Butyl 1-(5-(3-(5-(Pentan-3-Ylcarbamoyl)Oxazol-2-Yl)Phenyl)-1H-Pyrazole-3-Carbonyl)Pyrrolidine-3-Carboxylate Trifluoroacetate]	960	70
CCC(CC)NC(=O)c1cc(-c2cccc(-c3ncc(C(=O)N[C@@H](C)C4CCCCC4)o3)c2)[nH]n1 [Example 1.24, (S)-N-(1-Cyclohexylethyl)-2-(3-(3-(Pentan-3-Ylcarbamoyl)-1H-Pyrazol-5-yl)Phenyl)Oxazole-5-Carboxamide]	180	83
CCC(CC)NC(=O)c1cnc(-c2cccc(-c3cc(C(=O)N[C@H](CC)[C@H]4CC[C@@H](C)O4)n[nH]3)c2)o1 [Example 3.53, 2-(3-(3-(((R)-1-((2R,5R)-5-Methyltetrahydrofuran-2-Yl)Propyl)Carbamoyl)-1 H-Pyrazol-5-Yl)Phenyl)-N-(Pentan-3-Yl)Oxazole-5-Carboxamide]	720	109
CCC(CC)NC(=O)c1cnc(-c2cccc(-c3ncc(C(=O)NC(CC)CC)o3)c2)o1 [Example 18.0, 2,2′-(1,3-Phenylene)Bis(N-(Pentan-3-Yl)Oxazole-5-Carboxamide)]	140	97
CCC(CC)NC(=O)c1cnc(-c2cccc(-c3cc(C(=O)N[C@@H](C)C4CC4)n(CC(C)(C)O)n3)c2)o1 [Example 8.0, (S)-2-(3-(5-((1-Cyclopropylethyl)Carbamoyl)-1-(2-Hydroxy-2-Methylpropyl)-1H-Pyrazol-3-Yl)Phenyl)-N-(Pentan-3-Yl)Oxazole-5-Carboxamide]	200	106
COC(=O)[C@@H](NC(=O)c1cnc(-c2cccc(-c3nnc(C(=O)NC(C4CC4)C4CC4)[nH]3)c2)o1)C(C)C [Example 12.9, (S)-Methyl 2-(2-(3-(5-((Dicyclopropylmethyl)Carbamoyl)-4H-1,2,4-Triazol-3-Yl)Phenyl)Oxazole-5-Carboxamido)-3-Methylbutanoate]	20	134
CCC(CC)NC(=O)c1cnc(-c2cccc(-c3cc(C(=O)N[C@H](C(=O)OC)C(C)C)n[nH]3)c2)o1 [Example 3.41, (S)-Methyl 3-Methyl-2-(5-(3-(5-(Pentan-3-Ylcarbamoyl)Oxazol-2-Yl)Phenyl)-1H-Pyrazole-3-Carboxamido)Butanoate]	130	89
CCC(CC)NC(=O)c1cnc(-c2cccc(-c3cc(C(=O)N[C@H](CCSC)C(=O)OC)n[nH]3)c2)o1 [Example 3.46, (R)-Methyl 4-(Methylthio)-2-(5-(3-(5-(Pentan-3-Ylcarbamoyl)Oxazol-2-yl)Phenyl)-1H-Pyrazole-3-Carboxamido)Butanoate]	800	80
CCC(CC)NC(=O)c1cnc(-c2cccc(-c3cc(C(=O)N[C@@H](C)C4CC4)n(C)n3)c2)o1 [Example 6.2, (S)-2-(3-(5-((1-Cyclopropylethyl)Carbamoyl)-1-Methyl-1H-Pyrazol-3-Yl)Phenyl)-N-(Pentan-3-Yl)Oxazole-5-Carboxamide]	50	131

More lines, in order of falling EC50, values ahead:

EC50 [nM]	Emax [%]	Compound
350	70	CCC(CC)NC(=O)c1cnc(-c2cccc(-c3cc(C(=O)N[C@@H](Cc4ccccc4)C(=O)OC)n[nH]3)c2)o1 [Example 3.50, (S)-Methyl 2-(5-(3-(5-(Pentan-3-Ylcarbamoyl)Oxazol-2-Yl)Phenyl)-1H-Pyrazole-3-Carboxamido)-3-Phenylpropanoate]
320	101	C[C@@H](NC(=O)c1cnc(-c2cccc(-c3cc(C(=O)N[C@H](C)C4CC4)n(CCO)n3)c2)o1)C1CC1 [Example 10.1, N-((R)-1-Cyclopropylethyl)-2-(3-(5-(((R)-1-Cyclopropylethyl)Carbamoyl)-1-(2-Hydroxyethyl)-1H-Pyrazol-3-yl)Phenyl)Oxazole-5-Carboxamide]
130	172	CCOC(=O)[C@@H](NC(=O)c1cnc(-c2cccc(-c3cc(C(=O)NC(C4CC4)C4CC4)n(CCO)n3)c2)o1)C(C)C [Example 4.4, (S)-Ethyl 2-(2-(3-(5-((Dicyclopropylmethyl)Carbamoyl)-1-(2-Hydroxyethyl)-1 H-Pyrazol-3-Yl)Phenyl)Oxazole-5-Carboxamido)-3-Methylbutanoate]
110	88	C[C@@H](NC(=O)c1nnc(-c2cccc(-c3ncc(C(=O)NC(C4CC4)C4CC4)o3)c2)[nH]1)C1CC1 [Example 13.1, (R)-2-(3-(5-((1-Cyclopropylethyl)Carbamoyl)-4H-1,2,4-Triazol-3-Yl)Phenyl)-N-(Dicyclopropylmethyl)Oxazole-5-Carboxamide]
110	68	CCC(CC)NC(=O)c1cnc(-c2cccc(-c3cc(C(=O)N[C@H](C)c4ccccc4)n[nH]3)c2)o1 [Example 3.51, (R)-N-(Pentan-3-Yl)-2-(3-(3-((1-Phenylethyl)Carbamoyl)-1H-Pyrazol-5-Yl)Phenyl)Oxazole-5-Carboxamide]
70	96	CCC(CC)NC(=O)c1cnc(-c2cccc(-c3cc(C(=O)NC4CCCCC4)n[nH]3)c2)o1 [Example 3.40, 2-(3-(3-(Cyclohexylcarbamoyl)-1 H-Pyrazol-5-Yl)Phenyl)-N-(Pentan-3-yl)Oxazole-5-Carboxamide]
10	113	COC(=O)[C@@H](NC(=O)c1cnc(-c2cccc(-c3cc(C(=O)NC(C4CC4)C4CC4)[nH]n3)c2)o1)C(C)C [Example 1.29, (S)-Methyl 2-(2-(3-(5-((Dicyclopropylmethyl)Carbamoyl)-1 H-Pyrazol-3-yl)Phenyl)Oxazole-5-Carboxamido)-3-Methylbutanoate]
